{
  "source": "patent US11524966B1",
  "about": "(Valo Early Discovery, Inc., priority 2017, dated 2022)",
  "data": [
    {"target": "T1, USP28 (His-tagged USP28-FL-mammalian) (Homo sapiens, UniProt Q96RU2)", "T1 construct": "Expression of USP28 (1-1077)-TEV-6*His (pTT5 vector); made in house; host or cells: Expi293f cells (pTT5 vector)", "T1 sequence (Q96RU2 1-1077)": "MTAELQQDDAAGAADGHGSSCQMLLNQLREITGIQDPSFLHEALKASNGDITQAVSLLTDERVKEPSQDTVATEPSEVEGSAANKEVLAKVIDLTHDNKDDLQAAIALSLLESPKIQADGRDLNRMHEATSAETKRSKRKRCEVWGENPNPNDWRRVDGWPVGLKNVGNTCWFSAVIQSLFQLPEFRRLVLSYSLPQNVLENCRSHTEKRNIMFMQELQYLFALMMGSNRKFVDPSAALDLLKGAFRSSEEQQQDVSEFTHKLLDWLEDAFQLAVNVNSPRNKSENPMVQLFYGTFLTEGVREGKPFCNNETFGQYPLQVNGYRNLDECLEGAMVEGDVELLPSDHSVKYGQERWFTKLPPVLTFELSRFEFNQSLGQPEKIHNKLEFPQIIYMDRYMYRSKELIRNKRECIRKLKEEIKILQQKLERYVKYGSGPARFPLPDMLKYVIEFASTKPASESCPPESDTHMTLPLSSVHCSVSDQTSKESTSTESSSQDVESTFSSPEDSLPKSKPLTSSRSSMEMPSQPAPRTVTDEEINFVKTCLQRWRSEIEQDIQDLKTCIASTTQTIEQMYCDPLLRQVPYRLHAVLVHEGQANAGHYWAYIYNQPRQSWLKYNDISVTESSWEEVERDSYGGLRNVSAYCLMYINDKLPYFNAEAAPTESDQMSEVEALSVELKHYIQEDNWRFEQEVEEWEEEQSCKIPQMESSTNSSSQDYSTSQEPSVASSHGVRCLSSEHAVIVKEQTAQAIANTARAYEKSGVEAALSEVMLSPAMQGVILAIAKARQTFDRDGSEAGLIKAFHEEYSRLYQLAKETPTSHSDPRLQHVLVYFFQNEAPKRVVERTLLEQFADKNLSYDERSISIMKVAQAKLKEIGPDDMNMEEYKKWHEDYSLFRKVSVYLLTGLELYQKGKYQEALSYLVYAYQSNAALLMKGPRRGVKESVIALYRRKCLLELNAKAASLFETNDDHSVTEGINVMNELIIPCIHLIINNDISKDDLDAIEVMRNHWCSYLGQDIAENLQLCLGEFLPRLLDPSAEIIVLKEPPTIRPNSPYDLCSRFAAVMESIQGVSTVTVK", "test": "Ubiquitin-Rhodamine 110 Assay for USP28 Activity, Example A-1(a)", "type": "biochemical", "details": "Ubiquitin-Rhodamine 110 assay, Example A-1(a); read-out: USP28 A-1(a) IC50 range", "in_short": "(§1)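 Full-length His-tagged human USP28 (1-1077, Expi293f-expressed), […], with 25 nM Ub-Rh110 (<<Km) in pH 8.0 Tris buffer with BME, BGG, Triton X-100. 10-point dilutions (25 μM-1.3 nM), 45 min at room temperature, citric acid stop, fluorescence 485/535 nm; IC50 by 4-parameter fit.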", "units": {"IC50": "nM"}, "values": [
      {"smiles": "Cc1cnc2c(N)c(C(=O)N[C@@H]3CCc4cc(N5CC6CCC(C5)N6)cc(F)c4C3)sc2n1", "note": "(single isomer, unassigned) [Example 11-14]", "IC50": "1 to 50"},
      {"smiles": "Cc1ccc2c(N)c(C(=O)N[C@@H]3COc4cc(N5CCNCC5)ccc4[C@@H]3C)sc2n1", "note": "(single isomer, unassigned) [Example 11-18]", "IC50": "> 2000"},
      {"smiles": "CCn1ccc2cc(C(=O)N[C@@H]3CCc4cc(N5CC6CCC(C5)N6)ccc4C3)nnc21", "note": "(single isomer, unassigned) [Example 11-23]", "IC50": "200 to 2000"},
      {"smiles": "CCn1ccc2cc(C(=O)N[C@H]3CCc4cc(N5CC6CCC(C5)N6)ccc4C3)nnc21", "note": "(single isomer, unassigned) [Example 11-24]", "IC50": "200 to 2000"},
      {"smiles": "Cc1ccc2c(N)c(C(=O)N[C@H]3COc4cc(C5(F)CCNCC5)ccc4C3)sc2n1", "note": "[Example 8-1, (R)-3-Amino-N-(7-(4-fluoropiperidin-4-yl)chroman-3-yl)-6-methylthieno[2,3-b]pyridine-2-carboxamide]", "IC50": "1 to 50"},
      {"smiles": "Cc1ccc2c(N)c(C(=O)N[C@H]3COc4cc(N5CCNCC5)cc(F)c4C3)sc2n1", "note": "[Example 10-1, (R)-3-amino-N-(5-fluoro-7-(piperazin-1-yl)chroman-3-yl)-6-methylthieno[2,3-b]pyridine-2-carboxamide]", "IC50": "1 to 50"},
      {"smiles": "CO[C@@H]1CN(c2cc(F)c3c(c2)OC[C@H](NC(=O)c2sc4nc(C)ccc4c2N)C3)C[C@H]1N", "note": "[Example 10-2, 3-amino-N-((R)-7-((3R,4R)-3-amino-4-methoxypyrrolidin-1-yl)-5-fluorochroman-3-yl)-6-methylthieno[2,3-b]pyridine-2-carboxamide]", "IC50": "1 to 50"},
      {"smiles": "[2H]C1([2H])NC([2H])([2H])C([2H])([2H])N(c2cc(F)c3c(c2)OC[C@H](NC(=O)c2sc4nc(C)ccc4c2N)C3)C1([2H])[2H]", "note": "[Example 10-4, (R)-3-amino-N-(5-fluoro-7-(piperazin-l-yl-2,2,3,3,5,5,6,6-d8)chroman-3-yl)-6-methylthieno[2,3-b]pyridine-2-carboxamide]", "IC50": "1 to 50"},
      {"smiles": "Cc1ccc2c(N)c(C(=O)N[C@@H]3COc4cc(N5CCNCC5)cc(F)c4C3)sc2n1", "note": "[Example 10-5, (S)-3-amino-N-(5-fluoro-7-(piperazin-1-yl)chroman-3-yl)-6-methylthieno[2,3-b]pyridine-2-carboxamide]", "IC50": "200 to 2000"},
      {"smiles": "Cc1ccc2c(N)c(C(=O)N[C@H]3COc4cc(N5CC6CNCC(C5)O6)cc(F)c4C3)sc2n1", "note": "[Example 10-6, N-((3R)-7-(9-oxa-3,7-diazabicyclo[3.3.1]nonan-3-yl)-5-fluorochroman-3-yl)-3-amino-6-methylthieno[2,3-b]pyridine-2-carboxamide]", "IC50": "1 to 50"},
      {"smiles": "Cc1cc(C)c2c(N)c(C(=O)N[C@H]3COc4cc(N5CC6CC(C5)N6)cc(F)c4C3)sc2n1", "note": "[Example 10-7, N-((3R)-7-(3,6-diazabicyclo[3.1.1]heptan-3-yl)-5-fluorochroman-3-yl)-3-amino-4,6-dimethylthieno[2,3-b]pyridine-2-carboxamide]", "IC50": "1 to 50"},
      {"smiles": "Cc1cnc2c(N)c(C(=O)N[C@H]3COc4cc(N5CC6CC(C5)N6)cc(F)c4C3)sc2n1", "note": "[Example 10-8, N-((3R)-7-(3,6-diazabicyclo[3.1.1]heptan-3-yl)-5-fluorochroman-3-yl)-7-amino-3-methylthieno[2,3-b]pyrazine-6-carboxamide]", "IC50": "1 to 50"},
      {"smiles": "Cc1cc(C)c2c(N)c(C(=O)N[C@H]3COc4cc(N5CCNCC5)cc(F)c4C3)sc2n1", "note": "[Example 10-9, (R)-3-amino-N-(5-fluoro-7-(piperazin-1-yl)chroman-3-yl)-4,6-dimethylthieno[2,3-b]pyridine-2-carboxamide]", "IC50": "1 to 50"}
    ]},
    {"target": "T1, USP28 (His-tagged USP28-FL-mammalian)", "test": "Ubiquitin-Rhodamine 110 Assay for USP28 Activity, Example A-1(a)", "type": "biochemical", "details": "Ubiquitin-Rhodamine 110 assay, format Example A-1(a); read-out: USP28 A-1(a) IC50 range", "in_short": "as §1", "units": {"IC50": "nM"}, "values": [
      {"smiles": "Cc1ccc2c(N)c(C(=O)N[C@H]3CCc4cc(N5C6CNCC5C6)ccc4C3)sc2n1", "note": "(single isomer, unassigned) [Example 11-35]", "IC50": "1 to 50"},
      {"smiles": "Cc1ccc2c(N)c(C(=O)N[C@@H]3CCc4cc(N5C6CNCC5C6)ccc4C3)sc2n1", "note": "(single isomer, unassigned) [Example 11-36]", "IC50": "200 to 2000"},
      {"smiles": "Cc1nc2sc(C(=O)N[C@H]3CCc4cc(N5CC6CCC(C5)N6)ccc4C3)c(N)c2s1", "note": "(single isomer, unassigned) [Example 12-1]", "IC50": "200 to 2000"},
      {"smiles": "Cc1ccc2c(N)c(C(=O)N[C@H]3COc4c(F)c(N5CC6CCC(C5)N6)cc(F)c4C3)sc2n1", "note": "(single isomer, unassigned) [Example 13-1]", "IC50": "1 to 50"},
      {"smiles": "Cc1ccc2c(N)c(C(=O)N[C@@H]3COc4c(F)c(N5CC6CCC(C5)N6)cc(F)c4C3)sc2n1", "note": "(single isomer, unassigned) [Example 13-2]", "IC50": "200 to 2000"},
      {"smiles": "Cc1ccc2c(N)c(C(=O)N[C@@H]3COc4cc(N5CCNCC5)c(Cl)cc4C3)sc2n1", "note": "(single isomer, unassigned) [Example 13-6]", "IC50": "1 to 50"},
      {"smiles": "Cc1nc2sc(C(=O)N[C@@H]3CCc4c(C#N)c(N5CC6CCC(C5)N6)cc(F)c4C3)c(N)c2s1", "note": "(single isomer, unassigned) [Example 14-22]", "IC50": "200 to 2000"},
      {"smiles": "Cc1ccc2c(N)c(C(=O)N[C@@H]3CCc4cc(N5CCNCC5)cnc4C3)sc2n1", "note": "(single isomer, unassigned) [Example 15-1]", "IC50": "> 2000"},
      {"smiles": "Cc1ccc2c(N)c(C(=O)N[C@H]3CCc4cc(N5CCNCC5)cnc4C3)sc2n1", "note": "(single isomer, unassigned) [Example 15-2]", "IC50": "200 to 2000"},
      {"smiles": "Cc1ccc2c(N)c(C(=O)N[C@@H]3CCc4c(ccc(N5CC6CCC(C5)N6)c4F)C3)sc2n1", "note": "(single isomer, unassigned) [Example 21-1]", "IC50": "50 to 200"},
      {"smiles": "Cc1ccc2c(N)c(C(=O)N[C@H]3CCc4c(ccc(N5CC6CCC(C5)N6)c4F)C3)sc2n1", "note": "(single isomer, unassigned) [Example 21-2]", "IC50": "1 to 50"},
      {"smiles": "Cc1ccc2c(N)c(C(=O)N[C@@H]3CCc4cc(N5CC6CCC(C5)N6)c(F)cc4C3)sc2n1", "note": "(single isomer, unassigned) [Example 21-3]", "IC50": "1 to 50"},
      {"smiles": "Cc1ccc2c(N)c(C(=O)N[C@H]3CCc4cc(N5CC6CCC(C5)N6)c(F)cc4C3)sc2n1", "note": "(single isomer, unassigned) [Example 21-4]", "IC50": "200 to 2000"},
      {"smiles": "Cc1ccc2c(N)c(C(=O)N[C@@H]3CCc4c(ccc(N5CCNCC5)c4F)C3)sc2n1", "note": "(single isomer, unassigned) [Example 21-5]", "IC50": "1 to 50"},
      {"smiles": "Cc1ccc2c(N)c(C(=O)N[C@H]3CCc4c(ccc(N5CCNCC5)c4F)C3)sc2n1", "note": "(single isomer, unassigned) [Example 21-6]", "IC50": "200 to 2000"},
      {"smiles": "Cc1ccc2c(N)c(C(=O)N[C@@H]3CCc4cc(N5CCNCC5)c(F)cc4C3)sc2n1", "note": "(single isomer, unassigned) [Example 21-7]", "IC50": "50 to 200"},
      {"smiles": "Cc1ccc2c(N)c(C(=O)N[C@H]3CCc4cc(N5CCNCC5)c(F)cc4C3)sc2n1", "note": "(single isomer, unassigned) [Example 21-8]", "IC50": "200 to 2000"},
      {"smiles": "Cc1ccc2c(N)c(C(=O)N[C@H]3CCc4c(F)c(N5CCNCC5)cc(F)c4C3)sc2n1", "note": "(single isomer, unassigned) [Example 22-1]", "IC50": "200 to 2000"},
      {"smiles": "Cc1ccc2c(N)c(C(=O)N[C@@H]3CCc4c(F)c(N5CCNCC5)cc(F)c4C3)sc2n1", "note": "(single isomer, unassigned) [Example 22-2]", "IC50": "1 to 50"},
      {"smiles": "Cc1ccc2c(N)c(C(=O)N[C@H]3CCc4c(F)c(N5CC6CNCC(C5)O6)cc(F)c4C3)sc2n1", "note": "(single isomer, unassigned) [Example 22-3]", "IC50": "200 to 2000"},
      {"smiles": "Cc1ccc2c(N)c(C(=O)N[C@@H]3CCc4c(F)c(N5CC6CNCC(C5)O6)cc(F)c4C3)sc2n1", "note": "(single isomer, unassigned) [Example 22-4]", "IC50": "1 to 50"},
      {"smiles": "Cc1ccc2c(N)c(C(=O)N[C@@H]3CCc4c(F)c(N5CC6CCC(C5)N6)cc(F)c4C3)sc2n1", "note": "(single isomer, unassigned) [Example 22-6]", "IC50": "200 to 2000"},
      {"smiles": "CO[C@H]1CN(c2ccc3c(n2)CC[C@H](NC(=O)c2sc4nc(C)cnc4c2N)C3)C[C@@H]1N", "note": "(single isomer, unassigned) [Example 23-1]", "IC50": "200 to 2000"},
      {"smiles": "CO[C@H]1CN(c2ccc3c(n2)CC[C@@H](NC(=O)c2sc4nc(C)cnc4c2N)C3)C[C@@H]1N", "note": "(single isomer, unassigned) [Example 23-2]", "IC50": "> 2000"}
    ]}
  ]
}
